The results in this text go back to a melting point compilation (Tetko et al.; mined from patent text by program, amines drawn as free bases though some values may be those of a salt).

By melting point is commonly meant the temperature of the solid-liquid transition.

Turning to `COc1ccc(C(C)(O)Cn2cc[nH]c2=O)cc1OC1CCCC1` (configuration not stated), the melting point was determined as 136 °C.
The value for `COc1ccc(C2=NN(C3CCN(C(=O)N4CCOCC4)CC3)C(=O)[C@H]3CC=CC[C@@H]23)cc1Cl` (relative stereo) was 185 to 186 °C; that for `COC(=O)COCc1cc(Br)ccc1C(=O)OC` was 60 to 62 °C.
The value for `CC(C)(C)OC(=O)NCCNC(=O)c1ncsc1-c1cccc(OCc2cccc(C#N)c2)c1` was 115 °C; that for `C=CC(=O)N1CC(c2ccccc2)c2ccccc21` (configuration not stated) was 77 to 78 °C.
The value for `COCC1CC(=O)c2nc(C)c(C)n2C1` (configuration not stated) was 103 to 104 °C; that for `CC(C)[C@H](NC(=O)[C@@H]1CCCN1C(=O)OCc1ccccc1)C(=O)O` was 132 to 134 °C; that for `CCCCn1c(-c2ccccc2)c(Cc2c(O)ccc3ccccc23)c(=O)[nH]c1=S` was 201 to 203 °C.
`Cc1cc(N2CCCC(O)C2)c(S(C)(=O)=O)cc1C(=O)N=C(N)N` (configuration not stated): the melting point lay within 194 to 196 °C.
The value for `CC(C)NCC(O)COc1ncc(Br)nc1N(C)C` (configuration not stated) was 130 to 131 °C; that for `COc1cc(OC)c2c(=O)cc(-c3ccccc3Cl)oc2c1C1CCN(C)C1C(=O)O` (configuration not stated) was 165 to 167 °C; that for `CS(=O)(=O)c1ccc(-c2cc(=O)[nH]c(C(F)(F)F)c2-c2ccc(F)cc2)cc1` was 232 to 242 °C.
The value for `O=C(Nc1ccccc1)c1ccccc1Nc1ncnc2[nH]cc(C(=O)c3ccccc3)c12` was above 300 °C; that for `O=C(Nc1cccnn1)N1CCN(c2nccc(-c3cc(F)ccc3F)n2)CC1` was 271 to 272 °C.
In the case of `CCOC(=O)C1=C(C)NC(=S)N(C(=O)OCC)C1c1ccccc1Cl` (configuration not stated), the melting point was in the range of 126 to 128 °C.
Turning to `CC(=O)NC[C@H]1CN(c2cc(F)c(C3CCNCC3)c(F)c2)C(=O)O1`, the melting point fell in the range of 125 to 126 °C.
`CCCSc1nc(C)c(CC(=O)O)n1-c1ccccc1Cl` returned a melting point of 68 to 71 °C.
The value for `CCCc1c(OCCCOc2ccc(NC(=O)C(=O)O)cc2OC)ccc(C(C)=O)c1O` was 125 to 127 °C.
`COc1ccn2c(C)c(CCc3ccc4nc(N)oc4c3)nc2c1` came in with a melting point of 220 to 221 °C.
The value for `CC(C=O)Oc1ccc(Cl)cc1Cl` (configuration not stated) was 87 to 88 °C; that for `CC(C)c1nc2c(c(-c3ccc(F)cc3)c1CO)CCCC2(C)C` was 146 to 149 °C.
Compound `COc1ccc2sc3c(c2c1)OCCNC3=O` had a melting point of 264 to 265 °C.
The value for `Cc1c(NC(=O)OC(C)(C)C)cc2c(c1C)OC(C)(C)C2=O` was 154 to 155 °C; that for `Cc1ccc(S(=O)(=O)OCC2Cc3cccc(-c4ccccc4F)c3O2)cc1` (configuration not stated) was 99 to 101 °C.
The value for `CN(C)N=Cc1cn(C)nc1-c1ccc([N+](=O)[O-])o1` was 164 to 165 °C.
The value for `NS(=O)(=O)Cc1ccc(NCC(=O)N2CCC(Oc3ccc(Cl)cc3)CC2)cc1` was 180 to 187 °C.
In the case of `c1ccc(COc2ccc(Cc3nnc(Nc4ccc5c(c4)ncn5-c4ccccc4)c4ccccc34)cc2)cc1`, the melting point was in the range of 229 to 231 °C.
The value for `COC(=O)C(Cc1ccccc1)Oc1c(Br)cc(-c2ccc(-c3nc(-c4ccc(C(F)(F)F)cc4)oc3C)cc2)cc1Br` (configuration not stated) was 70 to 72 °C; that for `N#Cc1c(Cl)c2cc(Cl)cnc2[nH]c1=O` was 247 °C; that for `NC(=O)c1ccc2ccn(C3CCN(CCc4ccc(F)cc4)CC3)c2c1` was 238 to 240 °C.
The value for `CCS(=O)(=O)Nc1cc(-c2ncnc(C(F)F)c2Cl)c(Cl)cc1Cl` was 140 to 142 °C; that for `Nc1nc2ccccc2c2c1nc(CF)n2CC1(O)CCOC1` (configuration not stated) was 169 to 171 °C.
The value for `Cc1ccc(-c2nc(COc3ccc(CCCCn4ccnc4)cc3)cs2)s1` was 81 to 82 °C; that for `Cc1ccc2c([N+](=O)[O-])cc([N+](=O)[O-])c(O)c2n1` was 295 to 300 °C; that for `CC1(C)OCC[C@@H]2[C@H](C(O)CBr)C(=O)N21` (some centres not stated) was 141 to 142 °C.
In turn, `CCCCc1ccc(NC(=O)CN(C)C)c(N)c1` displayed a melting point of 66 to 68 °C.
The value for `CCn1ncc2c3[nH]c4cc(C)nn4c(=O)c3cnc21` was above 300 °C; that for `O=C(C=Cc1ccccc1)c1cc(Cl)ccc1O` was 142 to 145 °C.
The value for `COc1cc2c(cc1C(F)(F)F)N(C(=O)N(c1cccc(C)c1)c1ncon1)CC2` was 203 to 204 °C; that for `COc1cc2c(cc1OC)CN(CC(O)c1ccc([N+](=O)[O-])cc1)CC2` (configuration not stated) was 130 °C; that for `CC(C)=CCCC(C)C1CCC2C3CC=C4CC(O)CC(O)C4(C)C3CCC12C` (configuration not stated) was 137 to 139 °C.
The value for `CC(C)(C)c1cc(SCN2C(=O)CC(Sc3cc(C(C)(C)C)c(O)c(C(C)(C)C)c3)C2=O)cc(C(C)(C)C)c1O` (configuration not stated) was 138 to 140 °C.
`O=C(C=Cc1cccc(NS(=O)(=O)/C=C/c2ccccc2)c1)NO` showed a melting point of 171 °C.
The value for `CCCc1nc2c(N)nc3cc(-c4ccccc4)ccc3c2n1CCCC(C)=O` was 202 to 204 °C; that for `c1ccc2c(c1)nnn2CSCn1nnc2ccccc21` was 179 to 181 °C; that for `Cc1c(Cl)c(=O)n2c3c(cc(C(O)(C(F)(F)F)C(F)(F)F)cc13)CCC2` was 266 to 268 °C.
`CCOC(=O)C(=O)Nc1ccc2ccccc2c1NC(=O)C(=O)OCC` yielded a melting point of 150 to 151 °C.
Turning to `Cc1sc(-c2cccnc2)nc1O`, the melting point lay within 201 to 202 °C.
For the compound `CC(C)NC(=O)N1CCc2[nH]cnc2C1c1ccccc1` (configuration not stated), the melting point was 245 °C.
The value for `CC12CC3C(=O)OC(C1O)C3(C)O2` (configuration not stated) was 95 to 96.5 °C; that for `COC(=O)Nc1nc(-c2ccccc2)c(-c2nc3ccccc3c(=O)n2-c2ccccc2OC)s1` was 228 to 230 °C; that for `CC1=C(S(=O)(=O)c2ccc(C)cc2)C(c2ccc(C)cc2)C(C#N)=C(CC(C)C)N1` (configuration not stated) was 135 to 137 °C.
The value for `O=C1N(CCCCN2CCN(c3n[nH]c4ccccc34)CC2)CSC12CCCC2` was 166 to 168 °C.
The value for `CCC(NS(=O)(=O)c1ccc(Cl)cc1)c1ccccc1` (configuration not stated) was 140 to 142 °C.
For `Cc1nc2c(N)nc3ccccc3c2n1CCOCCN1CCCS1(=O)=O`, the melting point was in the range of 186 to 187 °C.
`O=C1CCc2ccc(Oc3cccc(CN4CCN(c5cccc(Cl)c5Cl)CC4)c3)cc2N1` returned a melting point of 182 to 183 °C.
The value for `COc1ccc2ccc(OC)c3c2c1CCC3CCNC(=O)C1CC1` (configuration not stated) was 120 °C; that for `N#Cc1ccc(-c2cn(-c3ccc(I)cc3)c(SCc3ccccn3)n2)cc1` was 180 to 184 °C.
The value for `Cc1sc(C)c2c1CCCC2(O)c1cn(C(c2ccccc2)(c2ccccc2)c2ccccc2)cn1` (configuration not stated) was 111 to 115 °C; that for `CCOC(=O)c1ncc2[nH]c3cccc(Oc4ccc(Cl)cc4)c3c2c1COC` was 207 °C.
Turning to `Oc1ccc(OCCN2CCN(c3ccccc3)CC2)cc1`, the melting point was 95 to 100 °C.
The value for `O=C(NCc1ccccc1)c1ccnc(NC(=O)c2ccccc2F)c1` was 175 to 176 °C.
